Results on four molecules are retold here after patent US6812237B2, “N-substituted peptidyl nitriles as cysteine cathepsin inhibitors” (Novartis AG, priority 2000, dated 2004).

The target in data set [1] is recombinant human cathepsin B (Homo sapiens, UniProt P07858). As to the kind of experiment: in vitro cathepsin B assay. It counts as biochemical. The conditions noted are these: Z-Arg-Arg-AMC substrate, pH 5.8 phosphate buffer, fluorescence at 20 minutes. As for the experimental part: The cathepsin inhibitory effects of the compound of the invention can be determined in vitro by measuring the inhibition of e.g. recombinant human cathepsins B, L and S. The buffer used in the assays is a 0.1 M pH 5.8 phosphate buffer containing EDTA (1.33 mM), DTT (2.7 mM) and Brij (0.03%).
The in vitro assays are carried out as follows:
To a microtiter well is added 100 uL of a 20 uM solution of inhibitor in assay buffer followed by 50 uL of a 6.4 mM solution of Z—Arg—Arg—AMC substrate (Peptides International) in assay buffer. After mixing, 50 uL of a 0.544 nM solution of recombinant human cathepsin B in assay buffer is added to the well, yielding a final inhibitor concentration of 10 uM. Enzyme activity is determined by measuring fluorescence of the liberated aminomethylcoumarin at […] using 380 nm excitation, at 20 minutes. % Enzyme inhibition is determined by comparison of this activity to that of a solution containing no inhibitor. Compounds are subsequently subjected to a dose response curve analysis to determine IC50 values.

`C=CCOC(=O)c1cccc(COCC(C#N)NC(=O)[C@H](Cc2cccc(C)c2)Nc2ccc(F)cc2)c1` (stereo in doubt) [Example 5, N-[2-[3-(allyloxycarbonyl)-benzyloxy]-1(S)-cyanoethyl]-3-methyl-Nα-(4-fluorophenyl)-L-phenylalaninamide]: the melting point (usually the temperature of the solid-liquid transition) lay within 86 to 88 °C.
The molecule `Cc1cccc(C[C@H](Nc2ccccc2)C(=O)NC(C#N)COCc2cccc(C(=O)O)c2)c1` (stereo in doubt) [Example 6, N-[2-(3-Carboxy-benzyloxy)-1(S)-cyanoethyl]-3-methyl-Nα-phenyl-L-phenylalaninamide] had a melting point of 135 to 137 °C. Moreover, the IC50 – broadly, the concentration that gives 50% inhibition – in data set [1] was around 0.1 µM.
`N#C[C@@H](COCc1cccc(C(=O)O)c1)NC(=O)C1(Nc2ccccc2)CCCCC1` [Example 14 (a), N-[2-(3-carboxybenzyloxy)-1-(S)-cyanoethyl]-1-(phenylamino)-cyclohexanecarboxamide] yielded a melting point of 80 to 83 °C.
For `N#CCNC(=O)CN(c1ccccc1)C1Cc2ccccc2C1` [Example 14 (b), N-(cyanomethyl)-Nα-(phenyl)-indan-2-yl-glycine-amide], the melting point was in the range of 169 to 170 °C.
